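Cultured in 96-well plates, cells were exposed to test compound for 48 hours across five concentrations. GI50 marks 50% less growth. At the TGI there is no net growth.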
Columns and labels:
Assay in all cases: NCI-60 cell line screen, 48 h
SW-620 colon = system: SW-620 colon
SK-MEL-2 melanoma = system: SK-MEL-2 melanoma
MALME-3M melanoma = system: MALME-3M melanoma
OVCAR-8 ovarian = system: OVCAR-8 ovarian
OVCAR-5 ovarian = system: OVCAR-5 ovarian
K-562 leukemia = system: K-562 leukemia
MOLT-4 leukemia = system: MOLT-4 leukemia
BT-549 breast = system: BT-549 breast
HS 578T breast = system: HS 578T breast
MDA-MB-435 = system: MDA-MB-435

| Structure (SMILES) | TGI (SW-620 colon) [µM] | TGI (SK-MEL-2 melanoma) [µM] | TGI (MALME-3M melanoma) [µM] | TGI (OVCAR-8 ovarian) [µM] | TGI (OVCAR-5 ovarian) [µM] | TGI (K-562 leukemia) [µM] | TGI (MOLT-4 leukemia) [µM] | GI50 (SW-620 colon) [µM] | GI50 (SK-MEL-2 melanoma) [µM] | GI50 (BT-549 breast) [µM] | TGI (BT-549 breast) [µM] | GI50 (OVCAR-8 ovarian) [µM] | GI50 (OVCAR-5 ovarian) [µM] | GI50 (K-562 leukemia) [µM] | GI50 (HS 578T breast) [µM] | TGI (HS 578T breast) [µM] | GI50 (MOLT-4 leukemia) [µM] | GI50 (MDA-MB-435) [µM] | TGI (MDA-MB-435) [µM] | GI50 (MALME-3M melanoma) [µM] |
| --- | --- | --- | --- | --- | --- | --- | --- | --- | --- | --- | --- | --- | --- | --- | --- | --- | --- | --- | --- | --- |
| Cc1ccc(NC(=O)CCC(=O)C(C#N)c2ccccc2)cc1C (stereo unspecified) | > 100 | > 100 | > 100 | > 100 | > 100 | > 100 | > 100 | – | – | – | – | – | – | – | – | – | – | – | – | – |
| C[n+]1c(N)n(C(=O)OCc2ccccc2)c(=O)c2c1ncn2C(=O)OCc1ccccc1 | > 100 | > 100 | > 100 | > 100 | > 100 | > 100 | > 100 | – | – | – | – | – | – | – | – | – | – | – | – | – |
| NCP(=O)(O)OCC(=O)O | > 100 | > 100 | > 100 | > 100 | > 100 | > 100 | > 100 | – | – | – | – | – | – | – | – | – | – | – | – | – |
| COc1ccc2c(c1)OCCC1=C2SCC2(C)CCN=C12 (stereo unspecified) | > 100 | – | – | > 100 | – | > 100 | > 100 | – | – | – | – | – | – | – | – | – | – | – | – | – |
| O=C(/C(=C/c1ccccc1)c1ccccc1)N1c2ccccc2CC1c1c[nH]c2ccccc12 (stereo unspecified) | > 100 | 81.9 | > 100 | > 100 | > 100 | > 100 | 49.7 | – | – | – | – | – | – | – | – | – | – | – | – | – |
| COC(=O)Cc1nc2ccccc2o1 | > 100 | > 100 | > 100 | > 100 | > 100 | > 100 | > 100 | – | – | – | – | – | – | – | – | – | – | – | – | – |
| CN(C)CC1CCCC/C1=N/OC(=O)c1ccc(Cl)c(Cl)c1 (stereo unspecified) | > 100 | > 100 | > 100 | > 100 | > 100 | > 100 | – | – | – | – | – | – | – | – | – | – | – | – | – | – |
| CCOC(=O)/N=c1/nc(N(C)C)ss1 | > 100 | > 100 | > 100 | > 100 | > 100 | > 100 | > 100 | – | – | – | – | – | – | – | – | – | – | – | – | – |
| NS(=O)(=O)c1ccc(NC(=O)COC(=O)c2cccc3c(=O)c4ccccc4[nH]c23)cc1 | > 100 | 69.8 | 50.5 | 65.8 | > 90 | > 100 | > 47.2 | – | – | – | – | – | – | – | – | – | – | – | – | – |
| COc1c(N2CCN(Cn3c(O)c(N=NC(=O)c4ccncc4)c4cc(F)ccc43)C(C)C2)c(F)cc2c(=O)c(C(=O)O)cn(C3CC3)c12 (stereo unspecified) | > 50 | > 50 | – | > 50 | > 50 | > 50 | > 50 | 13.2 | > 50 | 37.5 | > 50 | 34.8 | 33.3 | > 50 | 0.294 | 13.8 | 39.1 | > 50 | > 50 | – |
| COc1ccc(C(=O)O/N=C2/CCC/C2=C\c2ccccc2)cc1 | > 100 | > 100 | > 100 | > 100 | > 100 | > 100 | > 100 | – | – | – | – | – | – | – | – | – | – | – | – | – |
| C#Cc1cc2c(N)c(C(=O)c3cc(OC)c(OC)c(OC)c3)[nH]c2cc1OC | > 100 | 62.9 | > 100 | > 100 | > 100 | > 100 | 95.2 | 0.396 | 0.572 | – | – | 2.48 | 3.79 | 0.462 | 1.34 | > 100 | 0.903 | – | – | 0.434 |
| Cc1ccc2c(c1)C(=O)c1c-2n(CCCN=[N+]=[N-])c(=O)c2cc([N+](=O)[O-])ccc12 | > 100 | > 100 | – | > 100 | > 100 | > 100 | 70.4 | 59.7 | > 100 | > 100 | > 100 | > 100 | > 100 | 39.4 | > 100 | > 100 | 17.8 | > 100 | > 100 | – |
| Cn1ccnc1C[N-]Cc1nccn1C.O=[N+]([O-])[O-].O=[N+]([O-])[O-].[Cu+2] | > 100 | – | – | > 100 | – | > 100 | > 100 | > 100 | – | – | – | > 100 | – | > 100 | – | – | > 100 | – | – | – |
| Cc1cc(O)cc2c1c(=O)c1ccccc1n2C | > 100 | > 100 | – | > 100 | > 100 | – | > 100 | – | – | – | > 100 | – | – | – | – | > 100 | – | – | > 100 | – |
| CCc1nc(-n2c(-c3ccccc3)nc3ccccc3c2=O)nc(N)c1-c1ccc(Cl)cc1 | > 100 | – | > 100 | > 100 | > 100 | > 100 | > 100 | 4.64 | – | 90.7 | > 100 | 7.96 | 2.86 | 3.06 | 34.8 | > 100 | 6.13 | 3.48 | > 100 | 23.9 |
| COc1ccc2nc3cccc(C(=O)NCCN(C)C)c3nc2c1 | – | 3.68 | 2.69 | – | 6.17 | 6.94 | 1.19 | – | – | – | – | – | – | – | – | – | – | – | – | – |
| Cc1cc(O)c(C(c2ccncc2)c2c(O)cc(C)[nH]c2=O)c(=O)[nH]1 | – | – | > 100 | > 100 | > 100 | > 100 | > 100 | – | – | – | > 100 | – | – | – | – | > 100 | – | – | > 100 | – |
| CN(C)CCNc1nc(-c2cccs2)cc(-c2cccs2)n1 | 29.1 | 32.9 | 30.9 | 21.7 | 23.9 | 36.5 | 13.4 | – | – | – | – | – | – | – | – | – | – | – | – | – |
| COc1ccc(C2=NOP(c3ccccc3)(c3ccccc3)(c3ccccc3)C2)cc1 | > 56.2 | > 60 | 50.9 | > 92.7 | > 75.9 | 31.4 | 41.2 | – | – | – | – | – | – | – | – | – | – | – | – | – |
| COc1cc2c(cc1OC)-c1ncc3cc4c(cc3c1C2)OCO4 | > 100 | 75.8 | – | > 100 | 97 | > 100 | 20.4 | 34.9 | 32.2 | – | – | 47.3 | 39.6 | 19 | – | – | 4.14 | 63.4 | > 100 | – |
| O=C(Nc1cccc(C(F)(F)F)c1)c1cc(Br)cc(Br)c1O | > 10 | 5.07 | – | > 10 | > 10 | 7.18 | > 10 | – | – | – | – | – | – | – | – | > 10 | – | – | > 10 | – |

— PubChem BioAssay (NCI)
